# Measurements published in article PMC8637440, “Structural Modifications Yield Novel Insights Into the Intriguing Pharmacodynamic Potential of Anti-inflammatory Nitro-Fatty Acids” (Frontiers in Pharmacology, 2021).
# What was measured:
# COX-2 = molecular target: T1, COX-2 (Homo sapiens, UniProt P35354); assay: Recombinant COX-2 peroxidase activity assay; type: biochemical; set-up: purchased Cayman Chemicals #700100; conditions: 30 min preincubation
# T1 sequence (P35354 18-604): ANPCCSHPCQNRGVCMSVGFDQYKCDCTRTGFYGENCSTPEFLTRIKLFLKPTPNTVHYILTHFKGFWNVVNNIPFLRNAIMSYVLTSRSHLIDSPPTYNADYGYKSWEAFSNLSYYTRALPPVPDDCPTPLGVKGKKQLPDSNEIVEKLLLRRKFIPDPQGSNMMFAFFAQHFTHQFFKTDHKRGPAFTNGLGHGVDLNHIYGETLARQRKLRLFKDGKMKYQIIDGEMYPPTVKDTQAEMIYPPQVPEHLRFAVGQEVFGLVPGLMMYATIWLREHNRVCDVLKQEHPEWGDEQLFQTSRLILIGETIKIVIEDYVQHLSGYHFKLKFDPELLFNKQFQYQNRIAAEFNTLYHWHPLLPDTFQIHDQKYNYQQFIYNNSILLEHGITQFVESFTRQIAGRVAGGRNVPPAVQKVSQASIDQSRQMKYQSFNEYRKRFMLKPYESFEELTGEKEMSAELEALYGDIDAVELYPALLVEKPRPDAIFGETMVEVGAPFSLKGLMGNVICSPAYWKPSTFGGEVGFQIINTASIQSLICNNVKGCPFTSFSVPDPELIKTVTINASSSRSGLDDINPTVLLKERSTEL
# Description: The effects of NFA on COX-2 activity were analyzed using a recombinant COX-2 activity assay using a COX Fluorescent Inhibitor Screening Assay Kit (Cayman Chemicals, #700100). The assay was performed according to the manufacturer’s instructions in a black 96-well microplate. Human COX-2 was pre-incubated with NFA and control inhibitors for 30 min at RT following the addition of ADHP (10-acetyl-3,5-dihydroxyphenoxazine) and AA. The mixture was incubated again for 2 min at RT, and the fluorescence was measured at excitation/emission wavelengths of 535/587 nm.
# FIGURE 4 Effects of NFA on COX-2 peroxidase activity. […] Peroxidase activity was measured by the appearance of TMPD. Data are presented as the percent of the control mean ± SD, n = 4. Statistical significance was calculated by one-way ANOVA with Bonferroni post-test. **p ≤ 0.0021, ***p ≤ 0.0002, ****p ≤ 0.0001 are considered significant.
# 12-LO = molecular target: T2, 12-LO (Homo sapiens, UniProt P18054); assay: 12-HETE formation in intact PMNL, A23187 in absence of AA; type: cell-based; conditions: read-out: PMNL (w/o AA) 12-HETE IC50
# T2 construct: endogenous in cells; host or cells: platelet impurities in human PMNL preparations
# T2 sequence (P18054 1-663): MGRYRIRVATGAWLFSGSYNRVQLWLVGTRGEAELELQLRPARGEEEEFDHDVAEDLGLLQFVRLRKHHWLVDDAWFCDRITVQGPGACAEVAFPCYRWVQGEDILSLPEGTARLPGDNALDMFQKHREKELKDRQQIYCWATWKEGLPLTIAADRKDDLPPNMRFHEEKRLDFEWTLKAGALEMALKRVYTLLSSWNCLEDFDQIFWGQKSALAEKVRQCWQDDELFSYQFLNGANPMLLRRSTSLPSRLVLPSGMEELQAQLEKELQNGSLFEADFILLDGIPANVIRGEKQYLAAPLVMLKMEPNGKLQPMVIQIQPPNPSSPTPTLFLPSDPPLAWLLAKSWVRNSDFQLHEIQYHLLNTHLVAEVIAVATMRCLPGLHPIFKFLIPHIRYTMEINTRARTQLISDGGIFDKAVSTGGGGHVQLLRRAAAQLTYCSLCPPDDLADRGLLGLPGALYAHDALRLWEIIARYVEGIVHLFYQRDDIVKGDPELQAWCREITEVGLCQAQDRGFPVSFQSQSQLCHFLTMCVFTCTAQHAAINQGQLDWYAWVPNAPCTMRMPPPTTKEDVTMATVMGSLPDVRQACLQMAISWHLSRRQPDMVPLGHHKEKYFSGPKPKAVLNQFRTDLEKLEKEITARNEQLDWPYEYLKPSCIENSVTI
inhibition at 10 µM (COX-2) [%],Structure (SMILES),IC50 (12-LO) [µM],inhibition of recombinant COX-2 peroxidase activity (COX-2; 10 µM)
> 90,"CCCCCCCC=C(CCCCCCCCC(=O)O)[N+](=O)[O-] [18.10.10, 10-nitro-octadec-10-enoic acid]",–,–
> 85,"CCCCCCCCCCC=C(CCCCCCCC(=O)O)[N+](=O)[O-] [20.9.9, 9-nitro-eicos-9-enoic acid]",15.5 ± 0.74,–
–,"CCCCCCCC/C=C\CCCCCCCC(=O)O [OA, oleic acid, reference compound]",–,only weakly affected

Structure (SMILES),inhibition at 10 µM (COX-2) [%],IC50 (12-LO) [µM],inhibition of recombinant COX-2 peroxidase activity (COX-2; 10 µM)
"CCCCCCCCC=C(CCCCCCCC(=O)O)[N+](=O)[O-] [18.9.9, 9-nitro-octadec-9-enoic acid]",> 65,6.26 ± 0.823,–
